1 molecule from patent US11981883B2, “Composition containing 1,2-dichloro-3,3,3-trifluoropropene” (DAIKIN INDUSTRIES, LTD., priority 2018, dated 2024) can be followed below.

The subject of this data set is rats. Kind of data set: 4-hour single-inhalation exposure test (OECD Guideline No. 436). The data set is classed as in vivo. How it is done:
A 4-hour single-inhalation exposure test was performed on rats by using a mist of HCFO-1223xd according to the OECD Guideline No. 436.

Turning to `FC(F)(F)C(Cl)=CCl` [HCFO-1223xd, 1,2-dichloro-3,3,3-trifluoropropene], the “death of rats on inhalation exposure” value (4-hour single inhalation, mist at a concentration of 5 mg/L) is recorded as “No death of the rats was observed”. In addition, the acute toxicity entry (4-hour single-inhalation exposure, OECD Guideline No. 436) is reported as “low acute toxicity”.
